The source of these data is publication PMC6389506 (Cell chemical biology, 2017).

Where only a bound is given, the exact number is not on record here.

Experiment [1] concerns the target T1, CDK9 (Homo sapiens, UniProt P50750). Kind of experiment: KINOMEscan profiling / biochemical kinase assay.
In a further experiment the target is CDK12 (Homo sapiens, UniProt Q9NYV4). Kind of experiment: CE-MS intact mass shift and MS/MS of the labeled peptide. The format is cell-based.
In experiment [2] the target is T1, CDK9. In words: biochemical kinase inhibition.
A further experiment addresses CDK7 (Homo sapiens, UniProt P50613). Kind of experiment: biochemical kinase inhibition.
Another experiment concerns the target CDK2 (Homo sapiens, UniProt P24941). Kind of experiment: biochemical kinase inhibition.

T1 sequence (P50750 whole entry): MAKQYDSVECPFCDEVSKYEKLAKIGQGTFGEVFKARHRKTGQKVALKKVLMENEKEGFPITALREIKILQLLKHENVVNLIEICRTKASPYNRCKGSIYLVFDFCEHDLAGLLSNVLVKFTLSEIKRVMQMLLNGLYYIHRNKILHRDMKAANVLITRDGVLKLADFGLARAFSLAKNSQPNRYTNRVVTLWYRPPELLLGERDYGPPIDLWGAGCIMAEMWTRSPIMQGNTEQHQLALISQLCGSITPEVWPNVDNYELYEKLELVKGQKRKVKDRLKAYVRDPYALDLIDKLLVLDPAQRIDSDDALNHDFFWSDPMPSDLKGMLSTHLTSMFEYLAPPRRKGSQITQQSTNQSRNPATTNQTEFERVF
CDK12, sequence (Q9NYV4 whole entry): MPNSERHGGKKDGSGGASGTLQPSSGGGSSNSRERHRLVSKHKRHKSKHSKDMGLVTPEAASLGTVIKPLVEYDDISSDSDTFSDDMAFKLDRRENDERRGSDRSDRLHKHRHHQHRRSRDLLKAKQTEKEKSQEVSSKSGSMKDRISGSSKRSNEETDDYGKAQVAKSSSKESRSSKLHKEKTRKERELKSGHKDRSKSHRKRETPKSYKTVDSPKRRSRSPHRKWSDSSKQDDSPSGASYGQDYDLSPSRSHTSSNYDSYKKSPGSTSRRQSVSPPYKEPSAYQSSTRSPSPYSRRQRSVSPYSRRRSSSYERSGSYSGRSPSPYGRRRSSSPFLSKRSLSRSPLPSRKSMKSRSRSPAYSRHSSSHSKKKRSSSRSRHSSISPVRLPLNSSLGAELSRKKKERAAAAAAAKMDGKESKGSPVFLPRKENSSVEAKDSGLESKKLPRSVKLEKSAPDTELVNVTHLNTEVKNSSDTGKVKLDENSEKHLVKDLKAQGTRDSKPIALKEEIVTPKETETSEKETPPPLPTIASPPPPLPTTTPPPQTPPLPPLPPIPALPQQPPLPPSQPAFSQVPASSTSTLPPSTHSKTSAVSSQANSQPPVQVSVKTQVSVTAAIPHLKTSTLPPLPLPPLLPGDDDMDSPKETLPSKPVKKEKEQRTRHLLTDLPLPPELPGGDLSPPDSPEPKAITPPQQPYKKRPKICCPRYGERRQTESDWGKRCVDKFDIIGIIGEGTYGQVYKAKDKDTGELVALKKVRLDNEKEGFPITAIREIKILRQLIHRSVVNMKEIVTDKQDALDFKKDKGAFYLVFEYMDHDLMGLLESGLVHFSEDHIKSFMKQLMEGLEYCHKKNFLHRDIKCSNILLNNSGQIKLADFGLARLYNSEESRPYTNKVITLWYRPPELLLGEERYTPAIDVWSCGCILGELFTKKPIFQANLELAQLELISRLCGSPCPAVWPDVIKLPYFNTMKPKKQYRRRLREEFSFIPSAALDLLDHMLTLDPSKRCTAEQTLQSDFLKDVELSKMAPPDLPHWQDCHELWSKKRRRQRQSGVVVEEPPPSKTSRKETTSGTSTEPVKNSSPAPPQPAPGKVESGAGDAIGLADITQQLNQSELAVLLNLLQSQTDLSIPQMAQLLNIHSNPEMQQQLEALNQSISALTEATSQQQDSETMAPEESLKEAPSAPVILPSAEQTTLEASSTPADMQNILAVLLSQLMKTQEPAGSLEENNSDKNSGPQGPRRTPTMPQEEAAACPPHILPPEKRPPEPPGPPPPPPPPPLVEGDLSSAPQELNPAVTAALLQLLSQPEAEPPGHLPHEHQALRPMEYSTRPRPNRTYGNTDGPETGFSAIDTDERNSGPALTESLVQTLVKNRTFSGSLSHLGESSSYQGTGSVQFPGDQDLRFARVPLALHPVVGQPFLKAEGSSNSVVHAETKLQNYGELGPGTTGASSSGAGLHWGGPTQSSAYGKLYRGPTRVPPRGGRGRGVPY
CDK12, sequence (O75909 whole entry partner): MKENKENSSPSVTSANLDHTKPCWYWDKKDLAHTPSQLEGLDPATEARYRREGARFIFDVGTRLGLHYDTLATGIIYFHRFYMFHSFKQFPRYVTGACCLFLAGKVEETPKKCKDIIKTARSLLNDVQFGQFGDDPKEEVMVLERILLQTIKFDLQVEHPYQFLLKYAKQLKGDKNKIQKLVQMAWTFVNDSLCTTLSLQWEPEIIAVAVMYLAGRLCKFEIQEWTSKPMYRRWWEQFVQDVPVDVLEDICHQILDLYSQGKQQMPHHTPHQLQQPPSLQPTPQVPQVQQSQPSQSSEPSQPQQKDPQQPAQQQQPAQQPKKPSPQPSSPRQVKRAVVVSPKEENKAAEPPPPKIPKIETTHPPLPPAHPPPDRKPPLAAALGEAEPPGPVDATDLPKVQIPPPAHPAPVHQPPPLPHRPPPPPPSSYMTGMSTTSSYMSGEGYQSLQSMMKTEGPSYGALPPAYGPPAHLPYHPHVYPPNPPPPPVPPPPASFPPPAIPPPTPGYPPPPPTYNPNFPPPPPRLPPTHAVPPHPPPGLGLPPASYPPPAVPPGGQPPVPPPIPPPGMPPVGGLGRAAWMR
CDK7, sequence (P50613 2-346): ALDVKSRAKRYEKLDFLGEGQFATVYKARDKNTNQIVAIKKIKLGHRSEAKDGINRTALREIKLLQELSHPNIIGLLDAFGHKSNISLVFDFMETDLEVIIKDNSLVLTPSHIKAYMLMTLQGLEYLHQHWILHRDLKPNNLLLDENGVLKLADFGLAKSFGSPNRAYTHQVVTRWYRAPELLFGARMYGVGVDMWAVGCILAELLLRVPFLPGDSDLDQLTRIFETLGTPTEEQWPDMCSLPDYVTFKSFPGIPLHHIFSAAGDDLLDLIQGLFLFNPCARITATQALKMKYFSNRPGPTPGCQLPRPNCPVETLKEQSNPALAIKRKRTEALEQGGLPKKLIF
CDK7, sequence (P51946 whole entry partner): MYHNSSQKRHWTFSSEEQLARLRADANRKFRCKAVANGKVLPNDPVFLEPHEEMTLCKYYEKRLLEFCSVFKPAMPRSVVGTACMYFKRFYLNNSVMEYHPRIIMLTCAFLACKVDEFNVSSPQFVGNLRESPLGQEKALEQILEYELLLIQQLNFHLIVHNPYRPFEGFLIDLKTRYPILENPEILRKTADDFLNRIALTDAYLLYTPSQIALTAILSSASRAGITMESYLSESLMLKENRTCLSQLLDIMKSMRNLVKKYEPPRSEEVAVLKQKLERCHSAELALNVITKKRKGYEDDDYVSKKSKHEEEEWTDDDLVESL

As for `C=CC(=O)Nc1cccc(Nc2cc(N3CCCC[C@H]3CCO)nc3c(CC)cnn23)c1` [E9, (S)-N-(3-(3-Ethyl-5-(2-(2-Hydroxyethyl)piperidin-1-yl)pyrazolo[1,5-a]pyrimidin-7-ylamino)phenyl)acrylamide], the “KINOMEscan profiling / biochemical kinase assay” value on CDK9 [1] was “E9 still retained fairly strong biochemical activity against CDK9”. The “CE-MS intact mass shift and MS/MS of the labeled peptide; bio-THZ1 competition p” value at CDK12 is listed as under 25 nM.

Turning to `CCC(=O)Nc1cccc(Nc2cc(N3CCCC[C@H]3CCO)nc3c(CC)cnn23)c1` [E9-R, (S)-N-(3-((3-Ethyl-5-(2-(2-Hydroxyethyl)piperidin-1-yl)pyrazolo[1,5-a]pyrimidin-7-yl)amino)phenyl)propionamide], the biochemical kinase inhibition entry is “E9-R exhibited improved biochemical inhibition of CDK2, CDK7, and CDK9 compared with E9” on CDK9 [2]; “E9-R exhibited improved biochemical inhibition of CDK2, CDK7, and CDK9 compared with E9” on CDK7; “E9-R exhibited improved biochemical inhibition of CDK2, CDK7, and CDK9 compared with E9” on CDK2.
